Drawing on ChEMBL document CHEMBL3608228, “Bisacremines A-D, Dimeric Acremines Produced by a Soil-Derived Acremonium persicinum Strain” (J Nat Prod, 2015), this text covers Activity and IC50 for four compounds.

Calls of active or inactive are those of the source. No cut-off for these calls is given here. A value given as a limit tells only on which side of the number the result lay.

The test system of one assay is Staphylococcus aureus. Put plainly: Antibacterial activity against Staphylococcus aureus. Type of assay: functional, organism-based.
The next assay has as its system A549. Briefly: Cytotoxicity against human A549 cells assessed as cell growth inhibition after 72 hrs by MTT assay. In kind it is functional, cell-based. As to conditions: A549, 72 h.
The test system of another assay is HeLa. Briefly: Cytotoxicity against human HeLa cells assessed as cell growth inhibition after 72 hrs by MTT assay. In kind it is functional, cell-based.
A further assay concerns HepG2. Put plainly: Cytotoxicity against human HepG2 cells assessed as cell growth inhibition after 72 hrs by MTT assay. As to conditions: HepG2, 72 h. Type of assay: functional, cell-based.

As for `Cc1ccc(/C=C/[C@@]2(C)CC[C@@](C)(/C=C/C3=C[C@H](O)[C@](C)(O)C[C@@H]3O)O2)cc1`, in the assay on Staphylococcus aureus, the result was inactive. The IC50 was above 50 µM in the assay on A549, 31.1 µM in the assay with HeLa and above 50 µM in the assay on HepG2.

In the case of `Cc1ccc(/C=C/[C@]2(C)CC[C@@](C)(/C=C/C3=C[C@H](O)[C@](C)(O)C[C@@H]3O)O2)cc1`, in the assay on Staphylococcus aureus, the result was inactive. Moreover, the IC50 in the assay on A549 is above 50 µM; in the assay on HeLa, 10.7 µM; in the assay with HepG2, above 50 µM.

Take `Cc1ccc(/C=C/[C@@]2(C)CC[C@](C)(/C=C/C3=C[C@H](O)[C@](C)(O)C[C@@H]3O)O2)cc1`: the result in the assay on Staphylococcus aureus was inactive. In addition, the figures for the IC50 in the assay with A549, in the assay with HeLa and in the assay with HepG2 were 41.3 µM, 9.3 µM and 31.1 µM, respectively.

With `Cc1ccc(/C=C/[C@]2(C)CC[C@](C)(/C=C/C3=C[C@H](O)[C@](C)(O)C[C@@H]3O)O2)cc1`, the outcome in the assay with Staphylococcus aureus was inactive. For the same compound, the IC50 in the assay on A549 was above 50 µM; in the assay on HeLa it was 46.1 µM; in the assay with HepG2, above 50 µM.
